Laboratory results published in patent US20240343699A1, “DERIVATIVES OF SUBSTITUTED MORPHOLINES AND USES THEREOF” (Supernus Pharmaceuticals, Inc., priority 2023, published 2024).
Several values for one entry are separate records, joined by “and”; a condition that tells them apart may be missing. Equal values may be shown once. Read-outs that look alike come from different tables or passages of the source.

Assays:
[1] = Preclinical PK after intraperitoneal dosing of COMPOUND D, COMPOUND B and viloxazine; type: in vivo, mouse; conditions: COMPOUND D IP 10.978 mg/kg; for Cmax: read-out: Cmax, plasma COMPOUND D
[2] = Plasma stability in rat plasma; type: in vitro ADME, Sprague Dawley rat; conditions: final concentration 2 μM
Protocol: A study was conducted to examine the plasma stability. Test Compounds: COMPOUND D, COMPOUND E, and Viloxazine. Positive controls: Enalapril and Propantheline.
A study was conducted to examine the bioanalytical data for compounds in Rat plasma. Frozen Sprague Dawley rat (male pooled) and human (mixed gender) plasma was utilized for the study. Test compounds were dissolved in dimethyl sulfoxide (DMSO) to make a 10 mM stock solution. A working solution was made with MeOH/water. COMPOUND E ([…]) was incubated with plasma in duplicates at 37° C. in a water bath. Sampling timepoints included 0, 5, 15, 30, and 60 min Enalapril and propantheline were used as positive control for rat and human plasma at 2 μM

[3] = Binding assays; conditions: 1.0E−05 M
Protocol: A study was conducted to test COMPOUND D and COMPOUND E in Binding and enzyme and uptake assays.
COMPOUND D and COMPOUND E were tested at 1.0E-05 M.
The results are expressed as a percent of control specific binding and as a percent inhibition of control specific binding
The IC50 values (concentration causing a half-maximal inhibition of control specific binding) and Hill coefficients (nH) were determined by non-linear regression analysis of the competition curves generated with mean replicate values using Hill equation curve fitting […]
where Y=specific binding, A=left asymptote of the curve, D=right asymptote of the curve, C=compound concentration, C50=IC50, and nH=slope factor. This analysis was performed using software developed at Cerep (Hill software) and validated by comparison with data generated by the commercial software SigmaPlot® 4.0 for Windows® (© 1997 by SPSS Inc.).
The inhibition constants (Ki) were calculated using the Cheng Prusoff equation where L=concentration of radioligand in the assay, and KD=affinity of the radioligand for the receptor. A scatchard plot is used to determine the KD.
In Vitro Pharmacology. Results showing an inhibition (or stimulation for assays run in basal conditions) higher than […] were considered to represent significant effects of the test compounds. Results showing an inhibition (or stimulation) between 25% and 50% are indicative of weak to moderate effects. Results showing an inhibition (or stimulation) lower than […] were not considered significant and mostly attributable to variability of the signal around the control level.

[4] = type: in vitro ADME; conditions: Rat plasma, wet ice bath
Protocol: A study was conducted to examine the bioanalytical data for compounds in Rat plasma. […] Frozen Sprague Dawley rat (male pooled) and human (mixed gender) plasma was utilized for the study. Test compounds were dissolved in dimethyl sulfoxide (DMSO) to make a 10 mM stock solution. A working solution was made with MeOH/water. […]

[5] = type: in vitro ADME, mouse; conditions: mice Blood, wet ice bath, 5% Paraoxon ethyl as stabilizer; for % stability: 0.5 hr

## CCOc1ccccc1OCC1CN(C(=O)OC(C)OC(=O)[C@H](N)C(C)C)CCO1 (stereo partly shown) [COMPOUND D]
[1]; CD-1, mouse, plasma, ip, 10.978 mg/kg, 0.250 h, individual mice, read-out: Plasma concentration of COMPOUND D
  concentration at 0.25 h: 3.44 ng/mL
[1]; CD-1, mouse, plasma, ip, 10.978 mg/kg, 0.500 h, individual mice, read-out: Plasma concentration of COMPOUND D
  concentration at 0.5 h: 1.12 ng/mL
[1]; CD-1, mouse, plasma, ip, 10.978 mg/kg, 1.00 h, individual mice
  concentration at 1 h: 5.74 ng/mL
[1]; CD-1, mouse, plasma, ip, 10.978 mg/kg, 24.0 h, individual mice
  concentration at 24 h: 3.48 ng/mL
[1]; CD-1, mouse, plasma, ip, 10.978 mg/kg, individual mice
  Cmax: 5.74 ng/mL
[1]; CD-1, mouse, plasma, ip, 10.978 mg/kg, mean, read-out: AUC0-last, plasma COMPOUND D
  AUC(0-t): 42.3 ng·h/mL
[1]; CD-1, mouse, plasma, ip, 10.978 mg/kg, mean
  Cmax: 4.61 ng/mL
[1]; CD-1, mouse, plasma, ip, 10.978 mg/kg, mean, read-out: MRT0-last, plasma COMPOUND D
  MRT last: 6.5 h
[1]; CD-1, mouse, plasma, ip, 10.978 mg/kg, mean, read-out: Tmax, plasma COMPOUND D
  Tmax: 12.5 h
[1]; 0.250 h, individual mice, 10.978 mg/kg
  Plasma concentration of COMPOUND D: BQL
[1]; 0.500 h, individual mice, 10.978 mg/kg
  Plasma concentration of COMPOUND D: BQL
[1]; 1.00 h, individual mice, 10.978 mg/kg
  Plasma concentration of COMPOUND D: BQL
[1]; 2.00 h, individual mice
  Plasma concentration of COMPOUND D: BQL
[1]; 4.00 h, individual mice
  Plasma concentration of COMPOUND D: BQL
[1]; 8.00 h, individual mice
  Plasma concentration of COMPOUND D: BQL
[1]; 8.00 h, individual mice, 10.978 mg/kg
  Plasma concentration of Viloxazine: BQL
[1]; 24.0 h, individual mice
  Plasma concentration of Viloxazine: BQL
[1]; 24.0 h, individual mice, 10.978 mg/kg
  Plasma concentration of COMPOUND D: BQL
[1]; individual mice, 10.978 mg/kg
  AUC0-last, plasma COMPOUND D: 2.00 ng·h/mL and 82.6 ng·h/mL
  Cmax, plasma COMPOUND D: 3.48 ng/mL
  MRT0-last, plasma COMPOUND D: 0.860 h and 12.1 h
  Tlast, plasma COMPOUND D: 1.00 h and 24.0 h
  Tmax, plasma COMPOUND D: 1.00 h and 24.0 h
[1]; mean
  Tlast, plasma COMPOUND D: 12.5 h
[2]
  % Remaining at 60 min (Mean): 0.0%
[3]
  inhibition, 5-HT2B(h) (antagonist effect): 81.5%
  inhibition, 5-HT2c(h) (antagonist effect): 72.4%
  inhibition, 5-HT4e(h) (antagonist radioligand): 78.6%
  inhibition, norepinephrine transporter(h) (antagonist radioligand): 78.4%
[4]; 5% Paraoxon ethyl as stabilizer, HQC, 0 hr sample
  Mean peak area ratio: 1.83
[4]; 5% Paraoxon ethyl as stabilizer, HQC, 1 hr
  % stability: 58.7%
[4]; 5% Paraoxon ethyl as stabilizer, HQC, 1 hr sample
  Mean peak area ratio: 1.07
[4]; 5% Paraoxon ethyl as stabilizer, HQC, 2 hr
  % stability: 26.0%
[4]; 5% Paraoxon ethyl as stabilizer, HQC, 2 hr sample
  Mean peak area ratio: 0.47
[4]; 5% Paraoxon ethyl as stabilizer, LQC, 0 hr sample
  Mean peak area ratio: 0.00608
[4]; 5% Paraoxon ethyl as stabilizer, LQC, 1 hr
  % stability: 57.3%
[4]; 5% Paraoxon ethyl as stabilizer, LQC, 1 hr sample
  Mean peak area ratio: 0.00348
[4]; 5% Paraoxon ethyl as stabilizer, LQC, 2 hr
  % stability: 36.9%
[4]; 5% Paraoxon ethyl as stabilizer, LQC, 2 hr sample
  Mean peak area ratio: 0.00224
[4]; No stabilizer, HQC, 0 hr sample
  Mean peak area ratio: 0.67
[4]; No stabilizer, HQC, 1 hr
  % stability: 31.2%
[4]; No stabilizer, HQC, 1 hr sample
  Mean peak area ratio: 0.21
[4]; No stabilizer, HQC, 2 hr
  % stability: 8.0%
[4]; No stabilizer, HQC, 2 hr sample
  Mean peak area ratio: 0.05
[4]; No stabilizer, LQC, 0 hr sample
  Mean peak area ratio: 0.00292
[4]; No stabilizer, LQC, 1 hr
  % stability: 30.1%
[4]; No stabilizer, LQC, 1 hr sample
  Mean peak area ratio: 0.00088
[4]; No stabilizer, LQC, 2 hr
  % stability: 6.8%
[4]; No stabilizer, LQC, 2 hr sample
  Mean peak area ratio: 0.0002
[5]; HQC, 0 hr sample
  Mean peak area: 1.315
[5]; HQC
  % stability: 52%
[5]; HQC, 0.5 hr sample
  Mean peak area: 0.682
[5]; LQC, 0 hr sample
  Mean peak area: 0.00479
[5]; LQC
  % stability: 54.7%
[5]; LQC, 0.5 hr sample
  Mean peak area: 0.00262
